The assay concerns epithelial breast carcinoma cell line (MDAMB-435). Briefly: effect of compounds on growth of epithelial breast carcinoma cell line MDAMB-435 (MTT, 5 days). It is filed as cell-based. The following applies: Homo sapiens, MDA-MB-435, 120 h, MDAMB-435 cells, 5 days post drug addition, 0.1% DMSO. Here is the method:
The epithelial breast carcinoma cell line (MDAMB-435) was purchased from ATCC (American Type Cell Culture Collection) and was grown in culture in medium as recommended by ATCC. For analysis of the effect of various compounds on growth of these cells, the cells were plated at a concentration of 1500 cells/well in a 96 well tissue culture plate ("test plate). The day after the cells were plated, the compounds to be analyzed were dissolved in 100% DMSO (dimethyl sulfoxide) to yield at 10 mM stock solution. Each compound was diluted in H2 O to 1 mM and was added to triplicate wells in the first row of a 96 well master plate which contains medium to yield a final concentration of 40 μM. The compounds were then serially diluted in medium in the "master plate". The diluted compound(s) were then transferred to test plates containing cells. A row of vehicle "control cells" received DMSO. The final concentration of DMSO in each well was 0.1%. 5 days post drug addition, the plate was analyzed as follows:
MTT (3-(4-5 methyl thiazole-2-yl)-2,5-diphenyl tetrazolium bromide; thiazolyl blue) was added to each well to yield a final concentration of 1 mg/ml. The plate was then incubated at 37° C. for 21/2-3 hours. The MTT containing medium was then removed and 50 μl of 100% ethanol was added to each well to dissolve the formazan. The absorbences were then read using an automated plate reader (Bio-tek microplate reader).
IC50 's were calculated using the Reed and Munsch equation, see Am. J. Hygiene Vol. 27 pgs. 493-497, 1938.
In turn, `COc1ccc2c(C3=C(c4cn(C)c5cc(N=[N+]=[N-])ccc45)C(=O)NC3=O)cn(C)c2c1` [H H N3 CH3 O, 3-(6-Azido-1-methyl-1H-indol-3-yl)-4-(6-methoxy-1-methyl-1H-indol-3-yl)-pyrrole-2,5,-dione] showed a half-inhibitory concentration (IC50) of 70 nM.

The compound `Cn1cc(C2=C(c3cn(C)c4cc(Br)ccc34)C(=O)NC2=O)c2ccc(N)cc21` [H H NH2 Br, 3-(6-Amino-1-methyl-1H-indol-3-yl)-4-(6-bromo-1-methyl-1H-indol-3-yl)-pyrrole-2,5-dione] gave a half-inhibitory concentration (IC50) of 4 nM.

As to `COc1ccc2c(C3=C(c4cn(C)c5cc(N)ccc45)C(=O)NC3=O)cn(C)c2c1` [H H NH2 CH3 O, 3-(6-Amino-1-methyl-1H-indol-3-yl)-4-(6-methoxy-1-methyl-1H-indol-3-yl)-pyrrole-2,5-dione], the IC50 was determined as 15 nM.

As to `Cn1cc(C2=C(c3cn(C)c4cc(C#N)ccc34)C(=O)NC2=O)c2ccc(N)cc21` [H H NH2 CN, 3-[4-(6-Amino-1-methyl-1H-indol-3-yl)-2,5-dioxo-2,5-dihydro-1H-pyrrol-3-yl]-1-methyl-1H-indole-6-carbonitrile], the IC50 is < 10 nM.

`COC(=O)c1ccc2c(C3=C(c4cn(C)c5cc(N)ccc45)C(=O)NC3=O)cn(C)c2c1` [H H NH2 CO2 CH3, 3-[4-(6-Amino-1-methyl-1H-indol-3-yl)-2,5-dioxo-2,5-dihydro-1H-pyrrol-3-yl] -1-methyl-1H-indole-6-carboxylic acid methyl ester]: it took 50 nM to reach half-maximal inhibition (IC50).

`Cn1cc(C2=C(c3cn(C)c4cc(Cl)ccc34)C(=O)NC2=O)c2ccc(N)cc21` [H H NH2 Cl, 3-(6-Amino-1-methyl-1H-indol-3-yl)-4-(6-chloro-1-methyl-1H-indol-3-yl)-pyrrole-2,5-dione] gave a concentration for half-maximal inhibition (IC50) of 12 nM.

The compound `CCOc1ccc2c(C3=C(c4cn(C)c5cc(N)ccc45)C(=O)NC3=O)cn(C)c2c1` [H H NH2 EtO] registered a 50% inhibitory concentration (IC50) of 12 nM.

Take `Cn1cc(C2=C(c3cn(C)c4cc(F)ccc34)C(=O)NC2=O)c2ccc(N)cc21` [H H NH2 F, 3-(6-Amino-1-methyl-1H-indol-3-yl)-4-(6-fluoro-1-methyl-1H-indol-3-yl)-pyrrole-2,5-dione]: the half-inhibitory concentration (IC50) was 42 nM.

Compound `Cn1cc(C2=C(c3cn(C)c4cc(N)ccc34)C(=O)NC2=O)c2ccc(N)cc21` [H H NH2 NH2, 3,4-bis-(1-methyl-6-amino-1H-indol-3-yl)-pyrrole-2,5-dione] had an IC50 of 700 nM.

Consider `Cn1cc(C2=C(c3cn(C)c4cc([N+](=O)[O-])ccc34)C(=O)NC2=O)c2ccc(N)cc21` [H H NH2 NO2, 3-(6-Amino-1-methyl-1H-indol-3-yl)-4-(1-methyl-6-nitro-1H-indol-3-yl)-pyrrole-2,5-dione], for which the 50% inhibitory concentration (IC50) is < 10 nM.

As for `Cn1cc(C2=C(c3cn(C)c4cc([N+](=O)[O-])ccc34)C(=O)NC2=O)c2ccc(Cl)cc21` [H H NO2 Cl, 3-(6-chloro-1-methyl-1H-indol-3-yl)-4-(1-methyl-6-nitro-1H-indol-3-yl)-pyrrole-2,5-dione], half-maximal inhibition (IC50) was put at 70 nM.

Compound `Cn1cc(C2=C(c3cn(C)c4cc([N+](=O)[O-])ccc34)C(=O)NC2=O)c2ccc(F)cc21` [H H NO2 F, 3-(6-fluoro-1-methyl-1H-indol-3-yl)-4-(1-methyl-6-nitro-1H-indol-3-yl)-pyrrole-2,5-dione] had a 50% inhibitory concentration (IC50) of 70 nM.

As to `Cn1cc(C2=C(c3cn(C)c4cc([N+](=O)[O-])ccc34)C(=O)NC2=O)c2ccc([N+](=O)[O-])cc21` [H H NO2 NO2, 3,4-Bis-(1-methyl-6-nitro-1H-indol-3-yl)-pyrrole-2,5-dione], the IC50 came to 70 nM.

The compound `Cn1cc(C2=C(c3cn(C)c4cc([N+](=O)[O-])ccc34)C(=O)NC2=O)c2ccc(OCc3ccccc3)cc21` [H H NO2 Obenzyl, 3-(6-benzyloxy-1-methyl-1H-indol-3-yl)-4-(1-methyl-6-nitro-1H-indol-3-yl)-pyrrole-2,5-dione] gave a half-maximal inhibitory concentration (IC50) of 90 nM.

Take `CSc1ccc2c(C3=C(c4cn(C)c5cc([N+](=O)[O-])ccc45)C(=O)NC3=O)cn(C)c2c1` [H H NO2 SCH3, 3-(1-Methyl-6-methylsulfanyl-1H-indol-3-yl)-4-(1-methyl-6-nitro-1H-indol-3-yl)-pyrrole-2,5-dione]: the IC50 came out at 9 nM.

`COc1ccc2c(C3=C(c4cn(C)c5cc([N+](=O)[O-])ccc45)C(=O)NC3=O)cn(C)c2c1` [H H OCH3 NO2, 3-(6-methoxy-1-methyl-1H-indol-3-yl)-4-(1-methyl-6-nitro-1H-indol-3-yl)-pyrrole-2,5-dione]: the midpoint of inhibition, the IC50, lay at 7 nM.

The compound `COc1ccc2c(C3=C(c4cn(C)c5cc(OC)ccc45)C(=O)NC3=O)cn(C)c2c1` [H H OCH3 OCH3, 3,4-Bis-(6-methoxy-1-methyl-1H-indol-3-yl)-pyrrole-2,5-dione] gave an IC50 of 5 nM.

With `Cn1cc(C2=C(c3cn(C)c4cc([N+](=O)[O-])ccc34)C(=O)NC2=O)c2cc([N+](=O)[O-])ccc21` [H NO2 H NO2, 3-(1-methyl-5-nitro-1H-indol-3-yl)-4-(1-methyl-6-nitro-1H-indol-3-yl)-pyrrole-2,5-dione], 830 nM corresponded to half-maximal inhibition (IC50).

The IC50 is the midpoint of a concentration-inhibition curve. Low values mean greater potency, high ones weaker potency.

The values above are taken from US6228877A, “Substituted pyrroles” (Hoffmann-La Roche Inc., priority 1998, dated 2001).
